Results published in US7141553B2, “A3AR agonists for the treatment of inflammatory arthritis” (Can-Fite Biopharma Ltd. Israel, priority 2002, dated 2006).
Like-named read-outs stand apart in the source and are kept apart here.

Assays:
[1] = tested on: collagen-induced arthritis; assay: Collagen-induced-arthritis (CIA) model in mice; type: in vivo, mouse
Method: Male DBA mice, aged 10 weeks, were injected SC with 100 μl of Type II collagen 200 μg in complete Freund's adjuvant (CFA). On day 21 a booster injection of the same emulsion was administered. Mice were inspected daily for symptoms of clinical arthritis.
The inflammatory intensity, presented as joint swelling, was measured by Caliper (Mitutoyo Co., Tokyo, Japan). Histopathological sections of these decalcified whole joints were stained with hematoxylin-eosin. Slides were screened for the following arthritic characteristics: inflammatory cell infiltration, synovial cell lining hyperplasia and pannus formation. The histological assessment of the knees inflammation intensity was divided to four parameters: • 1. Lymphatic follicle like formation—graded 0–4 • 2. Inflammatory cells infiltration—graded 0–4 • 3. Synovial cells hyperplasia—graded 0–4 • 4. Pannus formation—graded 0–4 The arithmetic sum of these four parameters above all together designated-“Total Arthritic Score” (Goldenberg et al, J. Rheumatol. 1: 5–11, 1983). The white blood cell (WBC) count and the serum levels of the pro-inflammatory cytokine TMF-α served as humoral markers of the immune system activation. Tumor necrosis factor-α sera level was determined, in accordance with the manufacturer's guidelines, by ELISA kit “Quantikine M” (R&D Systems, Minneapolis, Minn., USA). 4. Statistical Analysis
Male DBA mice were treated to produce collagen-induced-arthritis as described above. Each group contained 10 animals and each experiment was conducted at least three times.
IB-MECA (10 μg/kg) was orally administered by gavage, twice daily starting at onset of clinical arthritis. The […] control received vehicle only. The inflammatory intensity in the CIA model was determined in accordance with the increase in the mice hind paw's diameter, measured by caliper (Mitotoyo, Tokyo, Japan). The mean score in each experimental group was designated as the “Clinical Score”. […]
The assessment of all pathologic findings were performed blind (by L. R-W and M. H) using semi-quantitative grading scales of 0 to 4 for the following parameters: […]

[2] = Single dose study in healthy men, plasma pharmacokinetics; type: in vivo, human
Method: (§1) In the single dose study, 15 healthy men (3 groups of 5) received a single oral dose of IB-MECA (1, 5 or 10 mg) or placebo. In each group, 1 subject received placebo. In the repeated dose study, 28 healthy men (4 groups of 7) received repeated oral doses of IB-MECA (2, 3, 4 or 5 mg) or placebo every 12 h for 7 days. In each group, 2 subjects received placebo.
(§2) In the single dose study, a solution with IB-MECA powder in 30% Cremophor RH40 (BASF) was used. In the repeated dose study, an aqueous 0.5% methylcellulose suspension (Methocel A4M Premium, The Dow Chemical Company) was used. In both studies, the study medication was taken orally as a drink, followed by 50 ml of tap water.
(§3) The following procedures were done: • Safety assesment: laboratory assessments (routine biochemistry and urinalysis), physical examination, 12-lead ECG, ambulatory ECG, pulmonary function testing (FEV1), vital signs (semi-recumbent in the single dose study; semi-recumbent and standing in the repeat dose study). Adverse events were recorded throughout both studies. • Determination of IB-MECA blood level: in the single dose study blood samples for assay of IB-MECA were taken immediately before and at 0.25, 0.5, 1, 2, 4, 8, 12, 24, and 48 h after dosing; in the repeat dose study—blood samples were taken immediately before and at 0.25, 0.5, 1, 2, 4, 8, and 12 h after dosing on Day 1, before dosing on Days 2–6, and before and at 0.25, 0.5, 1, 2, 4, 8, 12, and 24 h after dosing on Day 7.
Plasma samples were assayed for IB-MECA using LC/MS/MS. The lower limit of quantification (LLOQ) was 0.1 ng/mL. Intra-assay coefficients of variation (CV) were <5.0% and inter-assay CVs were <9.4%.
Maximum concentration (Cmax) and time to maximum concentration (tmax) were observed values. Other pharmacokinetic parameters (half-life, t^1/2; AUC; and clearance, CL/F) were calculated by non-compartmental methods using WinNonlin® software (version 3.0, Pharsight, Mountain View, Calif., US). Accumulation indices of Cmax and AUC were calculated as ratio of values at steady state (Day 7) to the values on Day 1.

healthy men = assay: Repeat dose study in healthy men, safety and tolerability; type: in vivo, human
Method: Two clinical studies were carried out: a single dose study and a repeat dose study. Both studies were parallel-group, double-blind, dose-rising, and placebo-controlled in design.
as §1
Healthy young men, aged 18–45 years.
as §2, §3
Data from all subjects who received IB-MECA were included in the analysis of safety and tolerability (adverse events and laboratory safety variables). Numerical data and parameters were summarised using means or medians, and other descriptive statistics, according to the type and distribution of the data.

[3] = single doses 1-10 mg, independent of dose
[4] = single oral dose 1 mg, mean (SD)
[5] = single oral dose 5 mg, mean (SD)
[6] = single oral dose 10 mg, mean (SD)

CNC(=O)[C@H]1O[C@@H](n2cnc3c(NCc4cccc(I)c4)ncnc32)[C@H](O)[C@@H]1O [IB-MECA, N6-(3-iodobenzyl)-adenosine-5′-N-methyl-uronamide]
intensity of the arthritis ([1]; 10 μg/kg orally, day 21 difference significant p<0.02): reduced throughout the experimental period
histology sections of joints ([1]; 10 μg/kg, FIG. 7C): minimal inflammatory changes
histology score ([1]; 10 μg/kg, p<0.01 vs control, FIG. 8): 1.0±0.6
plasma level (Cmax) ([2]; single daily dose of 5 mg and twice daily dose of 4 mg): < 80 ng/mL
Cmax ([2]; single daily dose of 5 mg and twice daily dose of 4 mg, read-out: plasma level (Cmax)): < 160 nM
tmax ([2]; single doses 1-10 mg): 1 to 2 h
apparent plasma clearance (CL/F) [2, 3]: 4 to 7 L/h
half-life [2, 3]: about 8.5 h
AUC(0–48) [2, 4]: 220.7 ng·h/mL
AUC(inf) [2, 4]: 225.2 (21.7) ng · h/mL
CL/F [2, 4]: 4.5 (0.4) L/h
t1/2 [2, 4]: 8.7 (0.7) h
Cmax ([2]; single oral dose 1 mg, mean (SD), n=4): 21.2 ng/mL
tmax ([2]; single oral dose 1 mg, median (range)): 1 (1–2) h
AUC(0–48) [2, 5]: 872.3 ng·h/mL
AUC(inf) [2, 5]: 904.0 (221.9) ng · h/mL
CL/F [2, 5]: 5.8 (1.4) L/h
t1/2 [2, 5]: 8.3 (0.2) h
Cmax ([2]; single oral dose 5 mg, mean (SD), n=4): 81.6 ng/mL
tmax ([2]; single oral dose 5 mg, median (range)): 1 (1–2) h
AUC(0–48) [2, 6]: 1780.0 ng·h/mL
AUC(inf) [2, 6]: 1813.0 (226.5) ng · h/mL
CL/F [2, 6]: 5.6 (0.7) L/h
t1/2 [2, 6]: 8.6 (0.4) h
Cmax ([2]; single oral dose 10 mg, mean (SD), n=4): 178.0 ng/mL
tmax ([2]; single oral dose 10 mg, median (range)): 1 (1–2) h
safety profile (healthy men; 2-5 mg every 12 h for 7 days, vital signs, physical examination, FEV1, ECG): acceptable safety profile
heart rate (healthy men; Day 1 of repeated dosing, effect smaller on Day 7): dose-related increase in heart rate
tolerability (healthy men; repeat doses of up to 4 mg 12-hourly): safe and well tolerated
adverse events within 12 h of dosing (healthy men; repeated doses of 5 mg 12-hourly): 13
adverse events within 12 h of dosing (healthy men; repeated doses of up to 4 mg 12-hourly): 2
maximal tolerated dose (healthy men; twice daily administration): 4 mg
